Data reported in ChEMBL document CHEMBL1149719, “Psammaplysin C: a new cytotoxic dibromotyrosine-derived metabolite from the marine sponge Druinella (= Psammaplysilla) purpurea” (J Nat Prod, 1992).
In brackets after ≈: the same amount, converted by molar mass.

System: HCT-116
Test: Cytotoxicity against human HCT116 cells
Format: functional, cell-based

SMILES | IC50 [µg/mL]
COC1=C(Br)C[C@]2(OC=C1Br)ON=C(C(=O)NCCCOc1c(Br)cc(C(O)CN)cc1Br)[C@@H]2O (stereo partly drawn) [PSAMMAPLYSIN B] | 6 (≈ 8.01 µM)
CNCC(O)c1cc(Br)c(OCCCNC(=O)C2=NO[C@@]3(CC(Br)=C(OC)C(Br)=CO3)[C@H]2O)c(Br)c1 (stereo partly drawn) [PSAMMAPLYSIN C] | 3 (≈ 3.93 µM)
COC1=C(Br)C[C@]2(OC=C1Br)ON=C(C(=O)NCCCOc1c(Br)cc(CCN)cc1Br)[C@@H]2O [PSAMMAPLYSIN A] | 6 (≈ 8.19 µM)
